Assay results taken from patent US20240025856A1, “1,2,3,4-TETRAHYDROQUINOLINE DERIVATIVES AS INHIBITORS OF THE YAP/TAZ-TEAD ACTIVATION FOR TREATING CANCER” (KATHOLIEKE UNIVERSITEIT LEUVEN, priority 2020, published 2024).

system: YAP/TAZ-TEAD transcription; experiment: Reporter gene assay for measuring the inhibition of YAP/TAZ-TEAD transcription (TEAD-responsive element luciferase reporter in Hek293T cells); type: cell-based; settings: Hek293T cells transiently transfected with TEAD-responsive element luciferase reporter; 24 hours incubation
Method: Hek293T cells are cultured in DMEM supplemented with 10% fetal bovine serum, Sodium pyruvate, Sodium bicarbonate, L-glutamine. The cells are harvested and transiently transfected with TEAD-responsive element luciferase reporter. Transfected cells are plated in 384-wells plate containing pre-diluted compounds. After 24 hours incubation at 37° C./5% CO2, assay plates were cooled down to RT and levelled to an equal volume per well, prior to the addition of 25 uL luciferase substrate SteadyLite (Perkin Elmer)/well. The plate was shaken for 10 min at 600 rpm, centrifuged for 1 min at 500 rpm and measured with an Envision reader (PerkinElmer). The amount of relative light units produced by the TEAD reporter is used to calculated percent of inhibition. The percent of reporter inhibition was calculated in the presence of a positive control inhibitor (100% inhibition) versus a condition with the presence of the vehicle basal activity of the reporter (0% inhibition). The ability of a test compound to inhibit this activity was determined as: Percentage inhibition=[[…]((RLU determined in the presence of vehicle−RLU determined for sample with test compound present) divided by (RLU determined in the presence of vehicle−RLU determined for sample with positive control inhibitor))]*100
The activities of example compounds tested are depicted in the table below. The activity ranges A, B and C refer to IC50 values in the reporter gene assay as follows: “A”: IC50<1 μM; “B”: 1 μM≤IC50≤20 μM and “C”: IC50>20 μM; NT=not tested.

IC50 | Compound
> 20 µM | C=CC(=O)NCC1Cc2c(CC(=O)O)cccc2N(c2ccc(C(F)(F)F)cc2)C1 (stereo not shown) [Cpd. No. 161-En1, 2-(3-(acrylamidomethyl)-1-(4-(trifluoromethyl)phenyl)-1,2,3,4-tetrahydroquinolin-5-yl)acetic acid]
1 to 20 µM | C=CC(=O)NCC1Cc2c(Cc3noc(=O)[nH]3)cccc2N(c2ccc(C(F)(F)F)cc2)C1 (stereo not shown) [Cpd. No. 168-En1, N-((5-((5-oxo-4,5-dihydro-1,2,4-oxadiazol-3-yl)methyl)-1-(4-(trifluoromethyl)phenyl)-1,2,3,4-tetrahydroquinolin-3-yl)methyl)acrylamide]
1 to 20 µM | C=CC(=O)NCC1Cc2c(CC(=O)O)cccc2N(c2ccc(C(F)(F)F)cc2)C1 (stereo not shown) [Cpd. No. 161-En2, 2-(3-(acrylamidomethyl)-1-(4-(trifluoromethyl)phenyl)-1,2,3,4-tetrahydroquinolin-5-yl)acetic acid]
1 to 20 µM | OCCNC1Cc2ccccc2N(c2ccc(C(F)(F)F)cc2)C1 (single isomer, unassigned) [043-En1, (R)- or (S)-2-((1-(4-(trifluoromethyl)phenyl)-1,2,3,4-tetrahydroquinolin-3-yl)amino)ethan-1-ol]
> 20 µM | FC(F)(F)c1ccc(N2CC(C3CC(Br)=NO3)Cc3ccccc32)cc1 (single isomer, unassigned) [Cpd. No. 194(Dia1)-En2, 3-bromo-5-(1-(4-(trifluoromethyl)phenyl)-1,2,3,4-tetrahydroquinolin-3-yl)-4,5-dihydroisoxazole]

same assay, conditions: Homo sapiens, HEK-293T, 24 h, Hek293T cells transiently transfected with TEAD-responsive element luciferase reporter; 24 hours incubation

Compound | IC50
C=CC(=O)NCC1Cc2ccccc2N(c2ccc(C(C)C)cc2)C1 (stereo not shown) [compound 087, N-((1-(4-isopropylphenyl)-1,2,3,4-tetrahydroquinolin-3-yl)methyl)acrylamide] | < 1 µM
N#CCC(=O)NC1Cc2ccccc2N(c2ccc(C(F)(F)F)cc2)C1 (stereo not shown) [compound 052, 2-cyano-N-(1-(4-(trifluoromethyl)phenyl)-1,2,3,4-tetrahydroquinolin-3-yl)acetamide] | 1 to 20 µM
CNS(=O)(=O)CCNCC1Cc2ccccc2N(c2ccc(C(F)(F)F)cc2)C1 (stereo not shown) [compound 124, N-methyl-2-(((1-(4-(trifluoromethyl)phenyl)-1,2,3,4-tetrahydroquinolin-3-yl)methyl)amino)ethane-1-sulfonamide] | 1 to 20 µM
CN(C)C/C=C/C(=O)NC1Cc2ccccc2N(c2ccc(C(F)(F)F)cc2)C1 (stereo not shown) [compound 041, (E)-4-(dimethylamino)-N-(1-(4-(trifluoromethyl)phenyl)-1,2,3,4-tetrahydroquinolin-3-yl)but-2-enamide] | 1 to 20 µM
C=CC(=O)NCC1Cc2ccccc2N(C(=O)c2ccccc2)C1 (stereo not shown) [compound 177, N-((1-benzoyl-1,2,3,4-tetrahydroquinolin-3-yl)methyl)acrylamide] | < 1 µM
C=CC(=O)NCC1Cc2ccccc2N(c2cccc(C(F)(F)F)c2)C1 (stereo not shown) [compound 086, N-((1-(3-(trifluoromethyl)phenyl)-1,2,3,4-tetrahydroquinolin-3-yl)methyl)acrylamide] | < 1 µM
C=CS(=O)(=O)NC1Cc2ccccc2N(c2ccc(C(F)(F)F)cc2)C1 (stereo not shown) [compound 048, N-(1-(4-(trifluoromethyl)phenyl)-1,2,3,4-tetrahydroquinolin-3-yl)ethenesulfonamide] | < 1 µM
C=CC(=O)N(CCOC)CC1Cc2ccccc2N(c2ccc(C(F)(F)F)cc2)C1 (stereo not shown) [compound 135, N-(2-methoxyethyl)-N-((1-(4-(trifluoromethyl)phenyl)-1,2,3,4-tetrahydroquinolin-3-yl)methyl)acrylamide] | < 1 µM
C=CC(=O)NC1Cc2ccccc2N(c2ccc(C3CCCCC3)cc2)C1 (stereo not shown) [compound 019, N-(1-(4-cyclohexylphenyl)-1,2,3,4-tetrahydroquinolin-3-yl)acrylamide] | < 1 µM
C=CC(=O)NCC1Cc2ccccc2N(c2ccc(OC(F)F)cc2)C1 (stereo not shown) [compound 107, N-((1-(4-(difluoromethoxy)phenyl)-1,2,3,4-tetrahydroquinolin-3-yl)methyl)acrylamide] | < 1 µM
C=CC(=O)NC1Cc2ccccc2N(CC2CCCCC2)C1 (stereo not shown) [Cpd. No. 175, N-(1-(cyclohexylmethyl)-1,2,3,4-tetrahydroquinolin-3-yl)acrylamide] | < 1 µM
C=CC(=O)NCC1Cc2ccccc2N(Cc2ccccc2)C1 (stereo not shown) [compound 176, N-((1-benzyl-1,2,3,4-tetrahydroquinolin-3-yl)methyl)acrylamide] | < 1 µM
C=CC(=O)NC1Cc2ccccc2N(c2cc(F)ccc2F)C1 (stereo not shown) [compound 026, N-(1-(2,5-difluorophenyl)-1,2,3,4-tetrahydroquinolin-3-yl)acrylamide] | < 1 µM
C=CC(=O)NCC1Cc2c(Cc3ccccc3)cccc2N(c2ccc(C(F)(F)F)cc2)C1 (stereo not shown) [compound 129, N-((5-benzyl-1-(4-(trifluoromethyl)phenyl)-1,2,3,4-tetrahydroquinolin-3-yl)methyl)acrylamide] | < 1 µM
CC(=O)NCC1Cc2c(C(=O)O)cccc2N(c2ccc(C(F)(F)F)cc2)C1 (stereo not shown) [compound 155, 3-(acetamidomethyl)-1-(4-(trifluoromethyl)phenyl)-1,2,3,4-tetrahydroquinoline-5-carboxylic acid] | > 20 µM
C=CC(=O)NC1Cc2ccccc2N(c2ccc(OC(F)F)cc2)C1 (stereo not shown) [compound 022, N-(1-(4-(difluoromethoxy)phenyl)-1,2,3,4-tetrahydroquinolin-3-yl)acrylamide] | < 1 µM
CCC(=O)NC1Cc2c(Nc3cccnc3)cccc2N(c2ccc(C(F)(F)F)cc2)C1 (stereo not shown) [compound 072, N-(5-(pyridin-3-ylamino)-1-(4-(trifluoromethyl)phenyl)-1,2,3,4-tetrahydroquinolin-3-yl)propionamide] | 1 to 20 µM
C=CC(=O)NCC1Cc2ccccc2N(c2cccc(C(C)C)c2)C1 (stereo not shown) [compound 088, N-((1-(3-isopropylphenyl)-1,2,3,4-tetrahydroquinolin-3-yl)methyl)acrylamide] | < 1 µM
C#CC(=O)NCC1Cc2ccccc2N(c2ccc(C(F)(F)F)cc2)C1 (stereo not shown) [compound 119, N-((1-(4-(trifluoromethyl)phenyl)-1,2,3,4-tetrahydroquinolin-3-yl)methyl)propiolamide] | < 1 µM
CC(C)=CC(=O)NCC1Cc2ccccc2N(c2ccc(C(F)(F)F)cc2)C1 (stereo not shown) [compound 099, 3-methyl-N-((1-(4-(trifluoromethyl)phenyl)-1,2,3,4-tetrahydroquinolin-3-yl)methyl)but-2-enamide] | 1 to 20 µM

More lines, now with the values ahead:

IC50 | Compound
< 1 µM | C=CC(=O)NC1Cc2ccccc2N(c2ccc(F)c(F)c2)C1 (stereo not shown) [compound 018, N-(1-(3,4-difluorophenyl)-1,2,3,4-tetrahydroquinolin-3-yl)acrylamide]
< 1 µM | C=CC(=O)NCC1Cc2cc(OC)ccc2N(c2ccc(C(F)(F)F)cc2)C1 (stereo not shown) [compound 131, N-((6-methoxy-1-(4-(trifluoromethyl)phenyl)-1,2,3,4-tetrahydroquinolin-3-yl)methyl)acrylamide]
< 1 µM | C=CC(=O)NCC1Cc2ccccc2N(c2ccc(C=O)cc2)C1 (stereo not shown) [compound 159, N-((1-(4-formylphenyl)-1,2,3,4-tetrahydroquinolin-3-yl)methyl)acrylamide]
< 1 µM | CS(=O)(=O)NC1Cc2ccccc2N(c2ccc(C(F)(F)F)cc2)C1 (stereo not shown) [compound 047, N-(1-(4-(trifluoromethyl)phenyl)-1,2,3,4-tetrahydroquinolin-3-yl)methanesulfonamide]
< 1 µM | C=CC(=O)NCC1CCc2ccccc2N1Cc1ccc(C(F)(F)F)cc1 (stereo not shown) [compound 189, N-((1-(4-(trifluoromethyl)benzyl)-1,2,3,4-tetrahydroquinolin-2-yl)methyl)acrylamide]
< 1 µM | C=CC(=O)NC1Cc2c(Cc3ccccc3)cccc2N(c2ccc(C(F)(F)F)cc2)C1 (stereo not shown) [compound 066, N-(5-benzyl-1-(4-(trifluoromethyl)phenyl)-1,2,3,4-tetrahydroquinolin-3-yl)acrylamide]
1 to 20 µM | CCC(=O)NC1Cc2ccccc2N(c2ccc(C(F)(F)F)cc2)C1 (stereo not shown) [compound 037, N-(1-(4-(trifluoromethyl)phenyl)-1,2,3,4-tetrahydroquinolin-3-yl)propionamide]
< 1 µM | C=CC(=O)NC1Cc2ccccc2N(c2ccccc2)C1 (stereo not shown) [compound 002, N-(1-phenyl-1,2,3,4-tetrahydroquinolin-3-yl)acrylamide]
< 1 µM | C=CC(=O)NC1Cc2ccccc2N(c2cccc(C(F)(F)F)c2)C1 (stereo not shown) [compound 003, N-(1-(3-(trifluoromethyl)phenyl)-1,2,3,4-tetrahydroquinolin-3-yl)acrylamide]
< 1 µM | C=CC(=O)NC1Cc2cc(C)ccc2N(c2ccc(C(F)(F)F)cc2)C1 (stereo not shown) [compound 065, N-(6-methyl-1-(4-(trifluoromethyl)phenyl)-1,2,3,4-tetrahydroquinolin-3-yl)acrylamide]
1 to 20 µM | C=CC(=O)NC1Cc2ccccc2N(c2ccnc(C(F)(F)F)c2)C1 (stereo not shown) [compound 012, N-(1-(2-(trifluoromethyl)pyridin-4-yl)-1,2,3,4-tetrahydroquinolin-3-yl)acrylamide]
< 1 µM | CS(=O)(=O)NCC1Cc2ccccc2N(c2ccc(C(F)(F)F)cc2)C1 (stereo not shown) [compound 121, N-((1-(4-(trifluoromethyl)phenyl)-1,2,3,4-tetrahydroquinolin-3-yl)methyl)methanesulfonamide]
